The numbers were not newly measured in paper PMC10464202, “Discovery of novel JAK1 inhibitors through combining machine learning, structure-based pharmacophore modeling and bio-evaluation” (Journal of Translational Medicine, 2023), which cites them from elsewhere.

This data set addresses JAK1 (Homo sapiens, UniProt P23458). Particulars: JAK1 inhibitors obtained by literature search; read-out: IC50 of training set (Hiphop).

JAK1, sequence (P23458 whole entry): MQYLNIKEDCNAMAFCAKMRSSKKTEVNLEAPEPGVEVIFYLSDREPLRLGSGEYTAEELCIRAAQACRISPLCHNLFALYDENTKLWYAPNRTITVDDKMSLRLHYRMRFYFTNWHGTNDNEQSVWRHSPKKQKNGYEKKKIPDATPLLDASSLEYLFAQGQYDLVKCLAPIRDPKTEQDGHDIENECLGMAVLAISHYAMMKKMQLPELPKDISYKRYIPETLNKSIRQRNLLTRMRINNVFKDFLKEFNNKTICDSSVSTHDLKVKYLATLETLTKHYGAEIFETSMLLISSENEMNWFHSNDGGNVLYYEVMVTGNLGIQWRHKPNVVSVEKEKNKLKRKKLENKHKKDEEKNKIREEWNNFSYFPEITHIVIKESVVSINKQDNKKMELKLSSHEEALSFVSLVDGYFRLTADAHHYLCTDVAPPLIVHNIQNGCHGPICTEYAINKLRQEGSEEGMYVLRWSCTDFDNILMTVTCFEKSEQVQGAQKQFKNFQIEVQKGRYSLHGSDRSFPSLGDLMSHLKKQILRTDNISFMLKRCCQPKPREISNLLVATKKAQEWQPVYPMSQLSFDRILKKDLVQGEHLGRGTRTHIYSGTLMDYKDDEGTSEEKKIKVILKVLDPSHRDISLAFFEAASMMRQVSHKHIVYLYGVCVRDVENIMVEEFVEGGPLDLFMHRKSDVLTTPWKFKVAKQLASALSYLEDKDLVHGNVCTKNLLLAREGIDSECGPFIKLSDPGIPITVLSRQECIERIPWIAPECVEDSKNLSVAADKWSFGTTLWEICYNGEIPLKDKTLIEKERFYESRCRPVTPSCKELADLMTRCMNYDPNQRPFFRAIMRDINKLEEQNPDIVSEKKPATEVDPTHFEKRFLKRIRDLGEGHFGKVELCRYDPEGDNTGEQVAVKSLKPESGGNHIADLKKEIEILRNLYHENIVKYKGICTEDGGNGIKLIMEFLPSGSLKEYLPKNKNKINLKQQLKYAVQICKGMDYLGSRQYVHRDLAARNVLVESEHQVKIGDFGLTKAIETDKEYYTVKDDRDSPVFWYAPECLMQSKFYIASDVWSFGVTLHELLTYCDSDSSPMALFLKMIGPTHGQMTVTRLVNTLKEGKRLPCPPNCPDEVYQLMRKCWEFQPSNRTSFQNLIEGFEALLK

For orientation: IC50 means the midpoint of a concentration-inhibition curve. For the compound `Cc1ccc(C(=O)Nc2cccc3c(-c4nc(Nc5cnn(C)c5)ncc4C)c[nH]c23)c(C)n1` [Compound 5], the IC50 is 4 nM.
